# Data taken from patent US9204653B2, “5-fluoro pyrimidine derivatives” (DOW AGROSCIENCES LLC, priority 2008, dated 2015).
# Like-named read-outs stand apart in the source and are kept apart here.
# Tested on: Mycosphaerella graminicola; Anamorph: Septoria tritici; Bayer Code SEPTTR
# Assay: Leaf blotch of wheat, foliar fungicide treatment, one day protectant (1DP) or three day curative (3DC)
# Type: in vivo, Septoria tritici on wheat plants (variety Yuma)
# Details: Zymoseptoria tritici, rating of percent disease control
# [1] = 24 h, one day protectant (1DP), read-out: SETTTR 1DP 25 ppm
# [2] = 24 h, one day protectant (1DP), read-out: SEPTTR 1DP 100 ppm
# [3] = 72 h, three day curative (3DC), read-out: SEPTTR 3DC 25 ppm
# [4] = 72 h, three day curative (3DC), read-out: SEPTTR 3DC 100 ppm
# [5] = 24 h, one day protectant, read-out: SETTTR 1DP 25 ppm
# [6] = 24 h, one day protectant, read-out: SEPTTR 1DP 100 ppm
# [7] = 72 h, three day curative, read-out: SEPTTR 3DC 25 ppm
# [8] = 72 h, three day curative, read-out: SEPTTR 3DC 100 ppm
Compound,pest or weed control at 25 ppm [1],pest or weed control at 100 ppm [2],pest or weed control at 25 ppm [3],pest or weed control at 100 ppm [4],pest or weed control at 25 ppm [5],pest or weed control at 100 ppm [6],pest or weed control at 25 ppm [7],pest or weed control at 100 ppm [8]
CCCCN(C)/C=N/c1nc(OCc2ccc(F)cc2)ncc1F [Compound 518],76 to 100%,76 to 100%,76 to 100%,76 to 100%,–,–,–,–
COc1ccc(COc2ncc(F)c(NC(=O)Nc3ccccc3F)n2)cc1F [Compound 519],0 to 25%,0 to 25%,0 to 25%,0 to 25%,–,–,–,–
N#Cc1ccnc(COc2ncc(F)c(N)n2)c1 [Compound 522],0 to 25%,26 to 50%,0 to 25%,0 to 25%,–,–,–,–
COc1ccc(OC(=O)Oc2ncc(F)c(/N=C/N(C)C)n2)cc1 [Compound 523],76 to 100%,76 to 100%,76 to 100%,76 to 100%,–,–,–,–
O=[N+]([O-])c1ccccc1SNc1nc(OCc2cc(F)c(F)c(F)c2)ncc1F [Compound 525],76 to 100%,76 to 100%,76 to 100%,76 to 100%,–,–,–,–
O=[N+]([O-])c1ccccc1SNc1nc(OCc2ccc(F)c(C(F)(F)F)c2)ncc1F [Compound 527],51 to 75%,76 to 100%,0 to 25%,0 to 25%,–,–,–,–
CCCNC(=S)Nc1nc(OCc2cccs2)ncc1F [Compound 528],76 to 100%,76 to 100%,0 to 25%,51 to 75%,–,–,–,–
O=C(Nc1ccsc1)Nc1nc(OCCNc2ccccc2)ncc1F [Compound 529],0 to 25%,0 to 25%,0 to 25%,0 to 25%,–,–,–,–
CN1CCCC/C1=N\c1nc(OCc2cccs2)ncc1F [Compound 530],76 to 100%,76 to 100%,51 to 75%,76 to 100%,–,–,–,–
COc1cccc(COc2ncc(F)c(NC(=O)OCc3ccccc3)n2)c1 [Compound 531],76 to 100%,76 to 100%,76 to 100%,76 to 100%,–,–,–,–
COc1cccc(COc2ncc(F)c(N/N=C/c3ncc[nH]3)n2)c1 [Compound 532],26 to 50%,51 to 75%,0 to 25%,26 to 50%,–,–,–,–
CCC(C)/C(C)=N/Nc1nc(OCc2ccc(C)cc2)ncc1F (centres unmarked) [Compound 533],51 to 75%,51 to 75%,0 to 25%,26 to 50%,–,–,–,–
CCCNC(=O)Nc1nc(OCc2cccc(OC)c2)ncc1F [Compound 534],0 to 25%,26 to 50%,0 to 25%,26 to 50%,–,–,–,–
COc1cccc(COc2ncc(F)c(NC(=O)Nc3ccccc3F)n2)c1 [Compound 535],0 to 25%,0 to 25%,0 to 25%,0 to 25%,–,–,–,–
CCCNC(=O)Nc1nc(OCc2ccc(C)cc2)ncc1F [Compound 536],0 to 25%,0 to 25%,26 to 50%,26 to 50%,–,–,–,–
CCCCOc1ccc(COc2ncc(F)c(N)n2)cc1 [Compound 537],76 to 100%,76 to 100%,76 to 100%,76 to 100%,–,–,–,–
Fc1ccccc1NC(=S)Nc1nc(OCc2ccccc2)ncc1F [Compound 539],76 to 100%,76 to 100%,0 to 25%,0 to 25%,–,–,–,–
Nc1nc(OCc2ccc(Cl)cc2Cl)ncc1F [Compound 540],76 to 100%,76 to 100%,76 to 100%,76 to 100%,–,–,–,–
COc1ccccc1COc1ncc(F)c(/N=C/N2CCOCC2)n1 [Compound 541],76 to 100%,76 to 100%,76 to 100%,76 to 100%,–,–,–,–
CCOCc1cccc(COc2ncc(F)c(N)n2)c1 [Compound 543],76 to 100%,76 to 100%,76 to 100%,76 to 100%,–,–,–,–
CC(Oc1ncc(F)c(N)n1)c1c(F)c(F)c(F)c(F)c1F (centres unmarked) [Compound 544],0 to 25%,26 to 50%,0 to 25%,0 to 25%,–,–,–,–
CN(C)CCOc1ncc(F)c(N)n1 [Compound 545],0 to 25%,26 to 50%,0 to 25%,51 to 75%,–,–,–,–

Compound,pest or weed control at 25 ppm [1],pest or weed control at 100 ppm [2],pest or weed control at 25 ppm [3],pest or weed control at 100 ppm [4],pest or weed control at 25 ppm [5],pest or weed control at 100 ppm [6],pest or weed control at 25 ppm [7],pest or weed control at 100 ppm [8]
Nc1nc(COc2ccc(COc3ncc(F)c(N)n3)cc2)ncc1F [Compound 546],51 to 75%,51 to 75%,51 to 75%,0 to 25%,–,–,–,–
Nc1nc(OCc2ccc(F)c(Cl)c2)ncc1F [Compound 547],76 to 100%,76 to 100%,76 to 100%,76 to 100%,–,–,–,–
CC(C)NC(=O)Nc1nc(OCc2cccc(C#N)c2)ncc1F [Compound 548],0 to 25%,0 to 25%,0 to 25%,0 to 25%,–,–,–,–
Nc1nc(Oc2ccc(Cl)nc2)ncc1F [Compound 549],26 to 50%,0 to 25%,0 to 25%,0 to 25%,–,–,–,–
COc1cccc(COc2ncc(F)c(NC(C)=O)n2)c1 [Compound 550],–,–,–,–,76 to 100%,76 to 100%,76 to 100%,76 to 100%
Nc1nc(Oc2ccccc2Cl)ncc1F [Compound 551],–,–,–,–,0 to 25%,26 to 50%,–,–
CCCNC(=S)Nc1nc(OCc2ccc(OC)c(F)c2)ncc1F [Compound 552],–,–,–,–,0 to 25%,76 to 100%,0 to 25%,76 to 100%
CCOC(=O)C(=O)Nc1nc(OCc2ccc(C)cc2)ncc1F [Compound 553],–,–,–,–,76 to 100%,76 to 100%,76 to 100%,76 to 100%
N#Cc1cccc(COc2ncc(F)c(NC(=O)Nc3ccccc3)n2)c1 [Compound 555],–,–,–,–,0 to 25%,0 to 25%,0 to 25%,0 to 25%
COc1cccc(COc2ncc(F)c(N/N=C\c3ncc[nH]3)n2)c1 [Compound 557],–,–,–,–,26 to 50%,0 to 25%,0 to 25%,0 to 25%
O=[N+]([O-])c1ccccc1SNc1nc(OCc2ccccc2)ncc1F [Compound 558],–,–,–,–,76 to 100%,76 to 100%,26 to 50%,26 to 50%
CC#CCOc1ncc(F)c(NCO)n1 [Compound 559],–,–,–,–,51 to 75%,76 to 100%,76 to 100%,76 to 100%
CC[Si](CC)(CC)Nc1nc(OCc2ccc(C)cc2)ncc1F [Compound 561],–,–,–,–,76 to 100%,76 to 100%,76 to 100%,76 to 100%
COc1cccc(COc2ncc(F)c(NN3CCCCC3)n2)c1 [Compound 562],–,–,–,–,0 to 25%,0 to 25%,0 to 25%,26 to 50%
Cc1cc(C)cc(COc2ncc(F)c(N)n2)c1 [Compound 564],–,–,–,–,51 to 75%,76 to 100%,26 to 50%,76 to 100%
CCCNC(=O)Nc1nc(OCc2cccc(F)c2)ncc1F [Compound 566],–,–,–,–,0 to 25%,0 to 25%,0 to 25%,0 to 25%
CCCNC(=S)Nc1nc(OCc2cccc(F)c2)ncc1F [Compound 568],–,–,–,–,51 to 75%,76 to 100%,76 to 100%,76 to 100%
COc1ccccc1COc1ncc(F)c(NCO)n1 [Compound 571],–,–,–,–,76 to 100%,76 to 100%,76 to 100%,76 to 100%
Fc1ccc(COc2ncc(F)c(NC(=S)NCc3ccccc3F)n2)cc1 [Compound 572],–,–,–,–,26 to 50%,76 to 100%,26 to 50%,51 to 75%
COc1ccc(Oc2ncc(F)c(N)n2)cc1 [Compound 573],–,–,–,–,26 to 50%,51 to 75%,0 to 25%,0 to 25%
Nc1nc(OCc2ccc(Cl)c(Cl)c2)ncc1F [Compound 574],–,–,–,–,76 to 100%,76 to 100%,76 to 100%,76 to 100%
